Test results from patent US9138393B2, “Cosmetic compositions containing substituted azole and methods for improving the appearance of aging skin” (The Proctor & Gamble Company, priority 2013, dated 2015).

Key:
[1] = molecular target: CYP3A4 (Homo sapiens (Human), UniProt P08684); experiment: In vitro CYP3A4 inhibition assay (P450-GLO Assay kit, Promega)
Text: The metabolism of retinoic acid and vitamin D in the skin is incompletely understood, but there is evidence for the involvement of CYP26A1, CYP3A4 and CYP2C8 in catalyzing the 4-hydroxylation of all-trans RA to 4-hydroxy-RA. It is believed, without being limited by theory, that CYP3A4 may be particularly important for ATRA metabolism in the skin. This is because CYP3A4 is expressed in skin, involved in RA metabolism, a CYP with one of the broadest substrate specificities of all of the known CYPs and available as a human recombinant protein in a commercial kit. Thus, a commercially available CYP3A4 assay was used as a surrogate to predict RAMBA potential in the skin.
The commercially available P450-GLO™ Assay kit (Promega Corporation, Madison Wis.) was used to screen various compounds for potential CYP activity, specifically CYP3A4A inhibition activity. CYP3A4A is thought to be among the primary CYP isoforms responsible for retinoic acid metabolism in the skin.
A commercially available P450-GLO™ Assay kit (Promega Corporation, Madison Wis.) is used to screen various compounds for CYP3A4A inhibition activity. CYP3A4A is thought to be one of the primary CYP isoforms responsible for retinoic acid metabolism in the skin.

[2] = tested on: ATRA 4-hydroxylase (CYP) activity; experiment: in vitro; conditions: pig, pH 7.4
Text: (§1) Cytochrome P450 is a large and diverse group of enzymes that catalyze the oxidation of organic substances. […] Applicant evaluated the potential RAMBA activity of several azoles using pig liver microsomes, a rich source of CYP activity, comprising many different CYP 450 isoforms. […] As understanding in this area has progressed, a more specific CYP inhibition assay can be used to provide better predictivity of activity in human skin. Nevertheless, this assay may still be used as a general predictor of overall CYP activity.
(§2) All procedures were carried out under minimal light in order to prevent degradation of the retinoid samples.
(§3) Microsomal preparation: One lobe of fresh pig liver is obtained (e.g., at about the time of slaughter from a food-processing company) and immediately placed in ice cold 15 mM KH2PO4/250 mM sucrose (pH 7.4) and kept on ice during transportation. A 10 g sample of liver is minced and homogenized in 30 mL of homogenization buffer (15 mM KH2PO4/250 mM sucrose) using a Tekmar homoginizer or equivalent by pulsing 3 times with 20 second pulses. […] The remaining pig liver may be stored at −80° C. The homogenates from the 8 samples are pooled and centrifuged at 13,000×g for 20 minutes at 4° C. to remove crude debris. The supernatant is further centrifuged at 100,000×g for 70 minutes at 4° C. The microsomal pellets are re-suspended into 50 mL of 150 mM KH2PO4/1 mM DTT (pH 7.4) and 1 mL aliquots are stored at −80° C.
(§4) 100-150 μg of pig liver microsomal protein in 150 mM KH2PO4 is incubated at 37° C. in the presence of radiolabeled ATRA and 5 mM NADPH for 90 min. The final ATRA concentration is 1 μM, as a combination of [20-Methyl-^3H]ATRA and unlabeled ATRA. Initially, radiolabeled ATRA may be used to assist in validating the method. Once retention times of retinoid metabolites are identified, unlabeled ATRA is used for screening. Compounds tested as possible competitive substrates are added to the assay 10 min prior to the addition of ATRA. Ethanol, containing 0.1% butylated hydroxytoluene (BHT) as an antioxidant, is used to stop the reactions. For recovery of ATRA the pH of reactions are adjusted to 3.0 before extraction with 0.1N HCl. Retinoids are extracted from the protein aqueous phase with 4 mL hexane, 1 ml 100 μg/ml BHT in water (pH 3). An additional 4 mL of hexane (pH 3) is used for a second extraction. The organic extractions are pooled, evaporated to dryness using a speed vac, and resuspended in 62.5 μl acetonitrile containing 1 mg/ml BHT. Samples are analyzed by HPLC.HPLC separation of retinoids. […] Mobile phases used for gradient elution of retinoids are those of Duell et al., J. Clin. Invest. […] Mobile phase A is acetonitrile:0.02 M ammonium acetate:acetic acid (1:1:0.01) and mobile phase B is acetonitrile:0.2M ammonium acetate:acetic acid (19:1:0.008). At the start of the HPLC run, solvent A is run 100% followed by a linear gradient to solvent B at 3 minutes, a shallow gradient to 81% solvent B at 38 minutes, and 100% solvent B at 40 minutes. […] Effluent from the HPLC column flows directly into a flow-through scintillation spectrometer […]. Because of the sensitivity limitations of the β-RAM spectrometer, it is not used to quantitate peak areas but rather to confirm ATRA and ATRA 4-hydroxylase activity. Calculated peaks areas (using Millenium software—Waters Corp.) of ATRA and ATRA metabolites are used to quantify relative activity levels.

[3] = tested on: facial skin; experiment: Method of treatment: topical application to the face, appearance of aging skin; type: in vivo, human; conditions: 0.55% by weight in a vehicle, entire face, one to two times a day for 8 weeks
Text: A test subject topically applies a composition comprising 0.55% 1-phenylimidazole, by weight in a vehicle, to the entire face one to two times a day for 8 weeks.

[4] = tested on: ATRA 4-hydroxylase (CYP) activity of pig liver microsomes; experiment: In vitro ATRA 4-hydroxylase activity assay to determine CYP inhibition (pig liver microsomes); conditions: pig liver microsomes
Text: as §1, §2, §3, §4

[5] = human recombinant CYP3A4, P450-GLO kit
[6] = read-out: hit / no hit (CYP3A4 inhibition), human recombinant CYP3A4, P450-GLO kit

Chain of CYP3A4 (P08684 whole entry): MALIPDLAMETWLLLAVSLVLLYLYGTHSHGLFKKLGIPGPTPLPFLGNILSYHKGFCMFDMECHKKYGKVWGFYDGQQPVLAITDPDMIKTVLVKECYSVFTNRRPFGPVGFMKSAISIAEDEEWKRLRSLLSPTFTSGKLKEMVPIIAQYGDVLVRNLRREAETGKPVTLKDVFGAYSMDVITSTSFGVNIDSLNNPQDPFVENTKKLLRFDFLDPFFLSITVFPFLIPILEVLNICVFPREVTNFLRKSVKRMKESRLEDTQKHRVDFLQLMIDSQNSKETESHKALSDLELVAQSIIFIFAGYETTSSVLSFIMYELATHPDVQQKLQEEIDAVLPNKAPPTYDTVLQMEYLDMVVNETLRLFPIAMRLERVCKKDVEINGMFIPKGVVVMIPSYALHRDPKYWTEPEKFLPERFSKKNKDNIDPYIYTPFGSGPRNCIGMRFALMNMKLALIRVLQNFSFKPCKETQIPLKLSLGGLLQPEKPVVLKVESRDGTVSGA

Row | SMILES | IC50 [1, 5] [µM] | IC50 [1, 6] [µM] | IC50 ([1]; human, recombinant enzyme) [µM] | other results
1 | CC(=O)n1ccnc1 [1-Acetylimidazole] | > 10 | > 10 | – | –
2 | Cn1ccnc1 [1-Methylimidazole] | – | – | > 10 | –
3 | C=Cn1ccnc1 [1-Vinylimidazole] | > 10 | > 10 | – | –
4 | Cc1nccn1Cc1ccccc1 [1-benzyl-2-methylimidazole] | – | – | – | IC50 at 90 min [2]: 308 µM
5 | c1ccc(Cn2ccnc2)cc1 [1-benzylimidazole] | – | – | – | IC50 [2]: 77.5 µM
6 | c1ccc(-n2ccnc2)cc1 [1-phenylimidazole] | 1 | – | – | appearance of aging facial skin after treatment [3]: facial skin feels and appears less aged; IC50 [1]: < 10 µM; inhibitory activity in the CYP3A4 assay (in words) [1]: showed inhibitory activity; CYP inhibitory activity (in words) [4]: elicit CYP inhibitory activity; IC50 [2]: 52.5 µM
7 | O=C(n1ccnc1)n1ccnc1 [1′-1-Carbonylimidazole] | > 10 | > 10 | – | –
8 | Clc1ccccc1-c1nc2ccccc2[nH]1 [2-(2-Chlorophenyl) benzimidazole] | > 10 | > 10 | – | –
9 | CCCCc1nc(C=O)c(Cl)[nH]1 [2-Butyl-4-chloro-5-formylimidazole] | – | – | > 10 | –
10 | CCc1nc(C)c[nH]1 [2-Ethyl-4-methyl-imidazole] | > 10 | > 10 | – | –
11 | CCc1ncc[nH]1 [2-Ethylimidazole] | – | – | > 10 | –
12 | Cc1ncc[nH]1 [2-Methylimidazole] | > 10 | > 10 | – | –
13 | c1ccc(-c2ncc[nH]2)cc1 [2-phenylimidazole, 2-Phenylimidazole] | > 10 | > 10 | – | inhibitory activity in the CYP3A4 assay (in words) [1]: did not; CYP inhibitory activity (in words) [4]: lacked any significant inhibitory activity; IC50 [2]: > 500 µM
14 | c1ccc(-c2nc[nH]c2-c2ccccc2)cc1 [4,5-diphenylimidazole] | – | – | – | IC50 at 90 min [2]: 100 µM
15 | CC(=O)c1ccc(-n2ccnc2)cc1 [4′-(Imidazol-1 yl) acetophenome] | – | – | – | IC50 [1]: < 10 µM
16 | Clc1ncnc2[nH]cnc12 [6-Chloropurine] | – | – | > 10 | –
17 | Nc1nc[nH]n1 [Amitrol] | – | – | > 10 | –

Row | SMILES | IC50 [1, 5] [µM] | IC50 [1, 6] [µM] | IC50 ([1]; human, recombinant enzyme) [µM] | other results
18 | CCCCNC(=O)n1c(NC(=O)OC)nc2ccccc21 [Benomyl] | > 10 | > 10 | – | –
19 | c1ccc2[nH]cnc2c1 [Benzimidazole] | > 10 | > 10 | – | –
20 | CC1=N[C@H](C(=O)O)CCN1 [Ectoine] | – | – | > 10 | –
21 | c1coc(-c2nc3ccccc3[nH]2)c1 [Fuberidazole] | > 10 | > 10 | – | –
22 | CC(NC(=O)[C@@H](N)CCC(=O)O)c1ncc[nH]1 (stereo partly shown) [Glutamylamidoethyl imidazole] | – | – | > 10 | –
23 | N=C(N)c1ccc(OCCCCCCOc2ccc(C(=N)N)cc2)cc1 [Hexamidine diisethionate] | > 10 | > 10 | – | –
24 | N[C@@H](Cc1c[nH]cn1)C(=O)O [Histidine] | – | – | > 10 | –
25 | N[C@@H](Cc1c[nH]c2ccccc12)C(=O)O [L-Tryptophan] | – | – | > 10 | –
26 | c1ccc(-c2n[nH]cc2-c2ccnc3ccccc23)nc1 [LY-364947] | – | – | > 10 | –
27 | Cc1cccc(C)c1N(Cn1cccn1)C(=O)CCl [Metazachlor] | > 10 | > 10 | – | –
28 | Cc1ccc2cc3c(ccc4ccccc43)c3c2c1CC3 [Methyl- cholanthrene] | > 10 | – | – | hit / no hit (CYP3A4 inhibition) [1, 5]: Near Hit
29 | CCc1cccc(C)c1N(C(=O)CCl)C(C)COC (stereo not shown) [Metolachlor] | – | – | – | IC50 [1]: > 10 µM
30 | CC(C)(C(=O)c1cccnc1)c1cccnc1 [Metyrapone] | – | – | – | IC50 [1]: < 10 µM
31 | NCCCn1ccnc1 [N-(3-Aminopropyl) imidazole] | – | – | > 10 | –
32 | O=C(/C=C/C=C/c1ccc2c(c1)OCO2)N1CCCCC1 [Piperine] | – | – | < 10 | –
33 | Cn1c(=O)c2[nH]cnc2n(C)c1=O [Theophylline] | – | > 10 | – | –
34 | CC(=O)/C=C/C1=C(C)CCCC1(C)C [β-Ionone] | – | – | > 10 | –
